The pEC50 is the EC50 on a negative log10 scale, so that one unit is a factor of ten. In general, CC50 refers to the concentration at which the toxic effect on the cells reaches its halfway point. Low readings indicate greater toxicity to the cells, high ones lower toxicity to the cells.

The values below come from patent US8450318B2 (priority 2007, dated 2013).

pEC50: −log10 of the molar value. ≈ marks a conversion by molar mass, not a printed value. Like-named read-outs stand apart in the source and are kept apart here.

In data set [1] the test system is Influenza B. In words: Anti-influenza activity in MDCK cells, Influenza B. In kind it is cell-based. As to conditions: for EC50 Influenza B MTS: cell viability, formazan-based MTS assay; for EC50 Influenza B visual CPE score: visual scoring of the CPE; for pEC50: reference compounds.
Data set [2] deals with Influenza A H3N2 subtype. The data set can be described thus: Anti-influenza activity in MDCK cells, Influenza A H3N2. In kind it is cell-based. Conditions: for EC50 Influenza A H3N2 subtype MTS: cell viability, formazan-based MTS assay; for EC50 Influenza A H3N2 subtype visual CPE score: visual scoring of the CPE; for pEC50: reference compounds. From the text: (§1) MDCK cells (Madin Darby canine kidney cells) have been used for the experiments shown in table 5 using standard procedures known in the art.
For orientation: Tetrazolium assays rely on reduction of a dye to a coloured formazan, in cell work by metabolically active cells.

In data set [3] the test system is Influenza A H1N1 subtype. In words: Anti-influenza activity in MDCK cells, Influenza A H1N1. In kind it is cell-based. Conditions: for EC50 Influenza A H1N1 subtype MTS: cell viability, formazan-based MTS assay; for EC50 Influenza A H1N1 subtype visual CPE score: visual scoring of the CPE; for pEC50: reference compounds.
From the text: as §1

The test system of data set [4] is HIV-2. In words: Antiretrovirus assay, HIV-2.
Data set [5] has as its system HIV-1.
Data set [6] relates to Feline Corona virus. In words: Activity on feline corona virus in CRFK cells. In kind it is cell-based.
Data set [7] relates to CRFK cells. As to conditions: cytotoxicity, feline corona virus test.
Data set [8] concerns CEM cells. In words: Cytostatic/cytotoxic activity, inhibition of CEM cell proliferation. As to conditions: Table 1; for CC50: 50% cytostatic concentration, CEM cell proliferation.
Setting [9] is: MTS, read-out: EC50 Influenza B MTS.
The mark [10] stands for this setting: visual CPE, read-out: EC50 Influenza B visual CPE score.
[11] abbreviates: MTS, read-out: EC50 Influenza A H3N2 subtype MTS.
[12] abbreviates: visual CPE, read-out: EC50 Influenza A H3N2 subtype visual CPE score.
Setting [13] is: MTS, read-out: EC50 Influenza A H1N1 subtype MTS.
Setting [14] is: visual CPE, read-out: EC50 Influenza A H1N1 subtype visual CPE score.
Where [15] appears, read: Table 1, CEM cells, prevention of syncytium formation by 50%, 4 to 5 days.

`CCc1c(CNc2cccc(C(C)=NO)c2)c(CC)c(CNc2cc(C)cc(C)n2)c(CC)c1CNc1cc(C)cc(C)n1` [ABT5]: in data set [1], the “EC50 Influenza B MTS” value was over 4 µg/mL and the “EC50 Influenza B visual CPE score” value was over 4 µg/mL. In data set [2], the “EC50 Influenza A H3N2 subtype MTS” value is over 4 µg/mL and the “EC50 Influenza A H3N2 subtype visual CPE score” value is over 4 µg/mL. Also, in data set [3], the “EC50 Influenza A H1N1 subtype MTS” value was over 4 µg/mL and the “EC50 Influenza A H1N1 subtype visual CPE score” value is over 4 µg/mL.
On to `CCc1c(CNc2cccc(CO)c2)c(CC)c(CNc2cc(C)cc(C)n2)c(CC)c1CNc1cc(C)cc(C)n1` [ABT6], for which the “EC50 HIV-2” value in data set [4] (Table 1a) was over 2 µg/mL. Moreover, the “EC50 HIV-1” value in data set [5] (Table 1a) was over 2 µg/mL.
For the molecule `CCOC(=O)CNc1cccc(NCc2c(CC)c(CNc3cccc(C)n3)c(CC)c(CNc3cccc(C)n3)c2CC)n1` [AH29], in data set [6], the “Feline Corona virus EC50” value was over 4 µg/mL. For the same molecule, the “Feline Corona virus CC50” value in data set [7] came out at 13.3 µg/mL.
Consider `CCc1c(CNc2cccc(C)n2)c(CC)c(CNc2cccc(NC(=O)Cc3ccccc3)n2)c(CC)c1CNc1cccc(C)n1` [AH30], for which, in data set [1], the “EC50 Influenza B MTS” value is over 4 µg/mL and the “EC50 Influenza B visual CPE score” value was over 4 µg/mL. Besides, in data set [2], the “EC50 Influenza A H3N2 subtype MTS” value is over 4 µg/mL and the “EC50 Influenza A H3N2 subtype visual CPE score” value was over 4 µg/mL. Further, in data set [3], the “EC50 Influenza A H1N1 subtype MTS” value is over 4 µg/mL and the “EC50 Influenza A H1N1 subtype visual CPE score” value was over 4 µg/mL.
Take `NC12CC3CC(CC(C3)C1)C2` [Amantadin, reference compound]: the pEC50 in data set [1] (setting [9]) was under 4.00; in data set [1] (setting [10]) it was under 4.00; in data set [2] (setting [11]), 5.80; in data set [2] (setting [12]), 5.40; in data set [3] (setting [13]), 4.23; in data set [3] (setting [14]) it was 4.23.
For the molecule `CCc1c(CC#N)c(CC)c(CNc2cc(C)cc(C)n2)c(CC)c1CNc1cc(C)cc(C)n1` [Co19], the “EC50 HIV-2” value in data set [4] (Table 1a) was over 2 µg/mL. Also, the “EC50 HIV-1” value in data set [5] (Table 1a) is over 2 µg/mL. Also, the “Feline Corona virus EC50” value in data set [6] is over 4 µg/mL. In addition, the “Feline Corona virus CC50” value in data set [7] stood at 10.8 µg/mL.
On to `CCc1c(CN)c(CC)c(CNc2cc(C)cc(C)n2)c(CC)c1CNc1cc(C)cc(C)n1.Cl` [Co28], for which, in data set [1], the “EC50 Influenza B MTS” value is over 0.8 µg/mL and the “EC50 Influenza B visual CPE score” value is over 0.8 µg/mL. Besides, in data set [2], the “EC50 Influenza A H3N2 subtype MTS” value was over 0.8 µg/mL and the “EC50 Influenza A H3N2 subtype visual CPE score” value is over 0.8 µg/mL. For the same molecule, in data set [3], the “EC50 Influenza A H1N1 subtype MTS” value is over 0.8 µg/mL and the “EC50 Influenza A H1N1 subtype visual CPE score” value was over 0.8 µg/mL.
In the case of `CCc1c(CNc2cc(C)cc(C)n2)c(CC)c(CNc2ccc3ccc(C)nc3n2)c(CC)c1CNc1cc(C)cc(C)n1` [Co50], the “EC50 HIV-2” value in data set [4] (Table 1a) was over 2 µg/mL. Moreover, the “EC50 HIV-1” value in data set [5] (Table 1a) was over 2 µg/mL.
On to `CCc1c(CNc2cc(C)cc(C)n2)c(CC)c(CNc2ccc3ccc(C)nc3n2)c(CC)c1CNc1ccc2ccc(C)nc2n1` [Co54], for which the “EC50 HIV-2” value in data set [4] (Table 1a) is over 2 µg/mL. In addition, the “EC50 HIV-1” value in data set [5] (Table 1a) is over 2 µg/mL.
With `Cc1ccc(NCc2c(C)c(CNc3ccc(C)cn3)c(C)c(CNc3ccc(C)cn3)c2C)nc1` [Compound 26], the “EC50 HIV-2” value in data set [4] (Table 1) was over 4 µg/mL. The “EC50 HIV-1” value in data set [5] (setting [15]) was over 4 µg/mL. The CC50 in data set [8] amounted to 22.0 ± 8.2 µg/mL (≈ 45.8 µM).
With `CC(=NO)c1cccc(NCc2c(C)c(CNc3cccc(C(C)=NO)c3)c(C)c(CNc3cccc(C(C)=NO)c3)c2C)c1` [Compound 27], the “EC50 HIV-2” value in data set [4] (Table 1) was over 4 µg/mL. Further, the “EC50 HIV-1” value in data set [5] (setting [15]) was over 4 µg/mL. Moreover, in data set [8], the CC50 was 20.4 ± 11.4 µg/mL (≈ 33.6 µM).
As to `CCc1c(CNc2cccc(C(C)=NO)c2)c(CC)c(CNc2cccc(C(C)=NO)c2)c(CC)c1CNc1cccc(C(C)=NO)c1` [Compound 28], the “EC50 HIV-2” value in data set [4] (Table 1) was over 4 µg/mL. Also, the “EC50 HIV-1” value in data set [5] (setting [15]) is over 4 µg/mL. The CC50 in data set [8] was 10.0 ± 0.98 µg/mL (≈ 15.4 µM).
`CCc1c(CN)c(CC)c(CNc2cc(C)cc(C)n2)c(CC)c1CNc1cc(C)cc(C)n1` [Compound 29]: the “EC50 HIV-2” value in data set [4] (Table 1) was over 0.8 µg/mL. In data set [1], the “EC50 Influenza B MTS” value is over 0.8 µg/mL and the “EC50 Influenza B visual CPE score” value is over 0.8 µg/mL. Further, in data set [2], the “EC50 Influenza A H3N2 subtype MTS” value is over 0.8 µg/mL and the “EC50 Influenza A H3N2 subtype visual CPE score” value is over 0.8 µg/mL. Further, in data set [3], the “EC50 Influenza A H1N1 subtype MTS” value is over 0.8 µg/mL and the “EC50 Influenza A H1N1 subtype visual CPE score” value was over 0.8 µg/mL. In data set [5] (setting [15]), the “EC50 HIV-1” value was over 0.16 µg/mL. In data set [8], this molecule yielded a CC50 of 1.69 ± 0.02 µg/mL (≈ 3.68 µM).
For `Cc1cccc(NC(=O)c2cc(C(=O)Nc3cccc(C)n3)cc(C(=O)Nc3cccc(C)n3)c2)n1` [Compound 30], the “EC50 HIV-2” value in data set [4] (Table 1) was over 20 µg/mL. Further, in data set [5] (setting [15]), the “EC50 HIV-1” value is over 20 µg/mL. In data set [8], the “cytotoxicity (in words)” value is listed as “low cytotoxicity” and the CC50 is over 100 µg/mL.
Take `CCC(CC)O[C@@H]1C=C(C(=O)O)C[C@H](N)[C@H]1NC(C)=O` [Oseltamivir caboxylate, reference compound]: the negative-log EC50 (pEC50) in data set [1] (setting [9]) is 5.59; in data set [1] (setting [10]), 5.40; in data set [2] (setting [11]), 5.80; in data set [2] (setting [12]), 5.74; in data set [3] (setting [13]), 8.52; in data set [3] (setting [14]), 8.40.
With `Cc1ccc(O)c(NC(=O)c2cc(C(=O)Nc3cc(C)ccc3O)cc(C(=O)Nc3cc(C)ccc3O)c2)c1` [Phe-Kresol], in data set [1], the “EC50 Influenza B MTS” value was over 0.8 µg/mL and the “EC50 Influenza B visual CPE score” value was over 0.8 µg/mL. Besides, in data set [2], the “EC50 Influenza A H3N2 subtype MTS” value is over 0.8 µg/mL and the “EC50 Influenza A H3N2 subtype visual CPE score” value was over 0.8 µg/mL. In data set [3], the “EC50 Influenza A H1N1 subtype MTS” value is over 0.8 µg/mL and the “EC50 Influenza A H1N1 subtype visual CPE score” value was over 0.8 µg/mL.
In the case of `CC(N)C12CC3CC(CC(C3)C1)C2` (stereo not drawn) [Rimantadin, reference compound], the pEC50 is under 4.00 in data set [1] (setting [9]); under 4.00 in data set [1] (setting [10]); 6.05 in data set [2] (setting [11]); 5.68 in data set [2] (setting [12]); 5.00 in data set [3] (setting [13]); 5.05 in data set [3] (setting [14]).
As for `Cc1ccc2ccc(NC(=O)c3cccc(C(=O)Nc4ccc5ccc(C)nc5n4)c3)nc2n1` [Sc74], in data set [1], the “EC50 Influenza B MTS” value was 9.9 µg/mL (≈ 22.1 µM) and the “EC50 Influenza B visual CPE score” value amounted to 10.9 ± 1.1 µg/mL (≈ 24.3 µM). In data set [2], the “EC50 Influenza A H3N2 subtype MTS” value stood at 12.5 µg/mL (≈ 27.9 µM) and the “EC50 Influenza A H3N2 subtype visual CPE score” value was 14.5 ± 7.8 µg/mL (≈ 32.3 µM). Further, in data set [3], the “EC50 Influenza A H1N1 subtype MTS” value amounted to 9.6 µg/mL (≈ 21.4 µM) and the “EC50 Influenza A H1N1 subtype visual CPE score” value came out at 15.1 ± 7.0 µg/mL (≈ 33.7 µM). In addition, the “Feline Corona virus EC50” value in data set [6] was 29.0 ± 4.8 µg/mL. In addition, the “Feline Corona virus CC50” value in data set [7] was over 100 µg/mL.
As for `Cc1cc(C)c2ccc(NC(=O)c3cc(C(=O)Nc4ccc5c(C)cc(C)nc5n4)cc(C(=O)Nc4ccc5c(C)cc(C)nc5n4)c3)nc2n1` [Sc75], in data set [1], the “EC50 Influenza B MTS” value is over 4 µg/mL and the “EC50 Influenza B visual CPE score” value is over 4 µg/mL. Moreover, in data set [2], the “EC50 Influenza A H3N2 subtype MTS” value was over 4 µg/mL and the “EC50 Influenza A H3N2 subtype visual CPE score” value is over 4 µg/mL. Besides, in data set [3], the “EC50 Influenza A H1N1 subtype MTS” value was over 4 µg/mL and the “EC50 Influenza A H1N1 subtype visual CPE score” value is over 4 µg/mL.
